Test results published in patent US11021467B2, “Phosphatidylinositol 3-kinase inhibitors” (Gilead Sciences, Inc., priority 2014, dated 2021).

Key:
Test in all cases: TR-FRET enzymatic activity assay against PI3K isoforms
Type in all cases: biochemical
PI3Kβ = PI3Kβ (Homo sapiens (Human), UniProt P42338); settings: for IC50: PI3Kβ, TR-FRET, 2×Km ATP, 30 minutes at 25° C.; for PI3Kγ/PI3Kβ ratio: ratio of IC50 values, selectivity for PI3Kβ over PI3Kγ
From the text: (§1) The compounds of formula (I) were characterized for their enzymatic activity against the PI3K isoforms. […] TR-FRET monitored the formation of 3,4,5-inositol triphosphate molecule that competed with fluorescently labeled PIP3 for binding to the GRP-1 pleckstrin homology domain protein.

PI3Kδ = PI3Kδ (Homo sapiens (Human), UniProt O00329); settings: 2×Km ATP, 30 minutes at 25° C.
From the text: as §1

PI3Kγ = PI3Kγ (Homo sapiens (Human), UniProt P48736); settings: 2×Km ATP, 30 minutes at 25° C.
From the text: as §1

Sequence of PI3Kβ (P42338 whole entry, the tested form may be a part, canonical isoform): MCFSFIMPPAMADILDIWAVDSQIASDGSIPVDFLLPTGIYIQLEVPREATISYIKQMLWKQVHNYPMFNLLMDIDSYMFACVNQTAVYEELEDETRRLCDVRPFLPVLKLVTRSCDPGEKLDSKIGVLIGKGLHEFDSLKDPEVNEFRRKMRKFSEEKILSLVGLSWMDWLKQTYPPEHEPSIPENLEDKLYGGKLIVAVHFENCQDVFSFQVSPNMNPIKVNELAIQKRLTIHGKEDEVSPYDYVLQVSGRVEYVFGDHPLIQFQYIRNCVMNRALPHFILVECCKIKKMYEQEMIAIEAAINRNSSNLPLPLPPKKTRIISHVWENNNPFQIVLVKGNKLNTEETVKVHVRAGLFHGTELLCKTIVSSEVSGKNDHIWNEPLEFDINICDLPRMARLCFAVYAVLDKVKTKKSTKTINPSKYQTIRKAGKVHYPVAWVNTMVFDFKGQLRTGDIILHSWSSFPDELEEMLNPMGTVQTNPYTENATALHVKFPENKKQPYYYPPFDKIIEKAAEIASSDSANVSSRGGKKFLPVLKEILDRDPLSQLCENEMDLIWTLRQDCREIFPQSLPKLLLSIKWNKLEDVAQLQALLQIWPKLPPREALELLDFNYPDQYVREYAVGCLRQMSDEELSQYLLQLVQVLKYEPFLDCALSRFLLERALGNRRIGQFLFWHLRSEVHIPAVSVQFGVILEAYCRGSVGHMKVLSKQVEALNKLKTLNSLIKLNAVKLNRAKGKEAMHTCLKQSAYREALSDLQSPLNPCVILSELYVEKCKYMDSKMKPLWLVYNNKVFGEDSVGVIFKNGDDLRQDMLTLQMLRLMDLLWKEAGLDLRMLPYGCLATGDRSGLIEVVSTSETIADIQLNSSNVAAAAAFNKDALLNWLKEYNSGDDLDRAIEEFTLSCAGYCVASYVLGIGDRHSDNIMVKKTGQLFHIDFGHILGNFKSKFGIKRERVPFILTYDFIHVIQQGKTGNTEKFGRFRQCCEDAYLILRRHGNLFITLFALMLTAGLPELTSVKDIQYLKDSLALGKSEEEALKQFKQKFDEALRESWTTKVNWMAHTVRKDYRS
Sequence of PI3Kβ (P27986 whole entry partner, the tested form may be a part, canonical isoform): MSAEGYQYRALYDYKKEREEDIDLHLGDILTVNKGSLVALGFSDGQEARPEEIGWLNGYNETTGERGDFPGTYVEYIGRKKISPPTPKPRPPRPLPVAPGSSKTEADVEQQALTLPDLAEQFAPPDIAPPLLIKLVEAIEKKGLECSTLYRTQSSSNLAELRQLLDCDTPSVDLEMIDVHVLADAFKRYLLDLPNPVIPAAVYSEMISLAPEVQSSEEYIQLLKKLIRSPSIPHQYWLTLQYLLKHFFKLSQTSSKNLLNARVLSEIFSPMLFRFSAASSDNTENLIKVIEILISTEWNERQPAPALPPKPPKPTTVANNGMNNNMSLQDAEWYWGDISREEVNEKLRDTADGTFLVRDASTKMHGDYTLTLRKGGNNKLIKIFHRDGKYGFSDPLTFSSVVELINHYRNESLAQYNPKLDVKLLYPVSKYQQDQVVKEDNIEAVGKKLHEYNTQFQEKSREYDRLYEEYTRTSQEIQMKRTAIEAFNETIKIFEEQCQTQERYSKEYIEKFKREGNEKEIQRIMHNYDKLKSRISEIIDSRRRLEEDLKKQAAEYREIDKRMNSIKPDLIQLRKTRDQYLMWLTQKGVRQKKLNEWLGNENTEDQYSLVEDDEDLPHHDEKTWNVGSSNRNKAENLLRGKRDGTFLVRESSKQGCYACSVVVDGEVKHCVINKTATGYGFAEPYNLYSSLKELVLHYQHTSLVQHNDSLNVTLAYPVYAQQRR
Sequence of PI3Kγ (P48736 whole entry): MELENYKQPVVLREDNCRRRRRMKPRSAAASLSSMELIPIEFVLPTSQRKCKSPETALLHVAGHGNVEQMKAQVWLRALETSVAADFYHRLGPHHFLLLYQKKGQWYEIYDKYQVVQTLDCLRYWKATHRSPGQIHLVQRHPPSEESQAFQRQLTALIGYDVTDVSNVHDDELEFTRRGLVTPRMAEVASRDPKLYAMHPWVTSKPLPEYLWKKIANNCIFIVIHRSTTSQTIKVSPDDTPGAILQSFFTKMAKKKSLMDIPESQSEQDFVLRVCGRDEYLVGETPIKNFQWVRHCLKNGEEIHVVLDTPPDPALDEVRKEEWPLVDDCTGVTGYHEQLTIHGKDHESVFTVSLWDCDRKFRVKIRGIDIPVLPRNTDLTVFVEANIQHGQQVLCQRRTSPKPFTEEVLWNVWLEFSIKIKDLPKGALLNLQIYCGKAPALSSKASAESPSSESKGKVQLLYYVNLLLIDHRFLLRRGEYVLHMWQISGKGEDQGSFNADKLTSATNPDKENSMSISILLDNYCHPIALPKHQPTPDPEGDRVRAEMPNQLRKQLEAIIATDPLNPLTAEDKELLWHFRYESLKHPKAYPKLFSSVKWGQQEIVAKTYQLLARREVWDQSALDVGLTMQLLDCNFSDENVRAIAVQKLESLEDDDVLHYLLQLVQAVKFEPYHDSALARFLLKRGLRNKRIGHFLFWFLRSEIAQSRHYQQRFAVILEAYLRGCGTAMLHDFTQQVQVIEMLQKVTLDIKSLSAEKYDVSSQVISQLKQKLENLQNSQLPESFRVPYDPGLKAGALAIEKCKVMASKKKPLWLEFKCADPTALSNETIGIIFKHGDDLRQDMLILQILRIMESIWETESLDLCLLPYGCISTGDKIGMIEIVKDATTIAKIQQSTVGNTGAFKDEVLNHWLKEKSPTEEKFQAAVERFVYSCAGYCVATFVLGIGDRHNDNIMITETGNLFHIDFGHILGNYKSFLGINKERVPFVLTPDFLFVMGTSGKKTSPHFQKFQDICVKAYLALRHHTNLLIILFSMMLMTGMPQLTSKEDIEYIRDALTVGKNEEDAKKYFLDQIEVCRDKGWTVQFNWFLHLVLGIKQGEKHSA
Sequence of PI3Kδ (O00329 whole entry): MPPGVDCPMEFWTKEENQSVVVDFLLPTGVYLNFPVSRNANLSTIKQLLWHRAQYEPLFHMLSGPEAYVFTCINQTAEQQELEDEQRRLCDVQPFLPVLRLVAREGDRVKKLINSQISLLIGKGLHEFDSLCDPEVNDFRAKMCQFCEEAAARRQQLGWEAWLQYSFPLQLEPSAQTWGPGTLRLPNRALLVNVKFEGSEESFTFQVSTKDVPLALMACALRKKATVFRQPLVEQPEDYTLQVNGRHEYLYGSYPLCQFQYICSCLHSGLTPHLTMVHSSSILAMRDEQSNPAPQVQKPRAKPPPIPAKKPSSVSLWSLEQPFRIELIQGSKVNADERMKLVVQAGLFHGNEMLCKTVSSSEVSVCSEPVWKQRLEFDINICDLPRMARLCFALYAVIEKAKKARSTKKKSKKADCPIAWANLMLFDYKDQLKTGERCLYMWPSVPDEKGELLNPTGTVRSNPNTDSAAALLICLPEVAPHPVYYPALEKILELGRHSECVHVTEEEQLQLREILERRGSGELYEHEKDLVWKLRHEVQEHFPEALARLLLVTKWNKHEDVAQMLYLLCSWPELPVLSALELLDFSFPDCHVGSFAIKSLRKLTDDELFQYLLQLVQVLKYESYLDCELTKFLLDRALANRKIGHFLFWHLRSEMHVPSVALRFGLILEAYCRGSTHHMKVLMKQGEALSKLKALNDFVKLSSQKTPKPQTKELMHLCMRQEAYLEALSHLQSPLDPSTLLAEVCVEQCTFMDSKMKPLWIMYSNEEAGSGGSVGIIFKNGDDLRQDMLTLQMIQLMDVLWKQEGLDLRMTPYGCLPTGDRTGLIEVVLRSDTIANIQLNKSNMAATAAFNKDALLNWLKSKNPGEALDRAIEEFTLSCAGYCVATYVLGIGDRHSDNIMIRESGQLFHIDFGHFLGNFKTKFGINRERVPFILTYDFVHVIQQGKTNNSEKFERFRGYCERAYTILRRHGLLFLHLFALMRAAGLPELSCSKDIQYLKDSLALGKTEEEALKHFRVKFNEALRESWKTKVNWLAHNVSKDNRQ
Sequence of PI3Kδ (P27986 whole entry partner): as the sequence (P27986 whole entry partner, the tested form may be a part, canonical isoform) above

Row | SMILES | IC50 (PI3Kβ) | IC50 (PI3Kδ) | IC50 (PI3Kγ) | PI3Kγ/PI3Kβ ratio (PI3Kβ) | PI3Kγ/PI3Kβ ratio (PI3Kβ; listed as (S)-2,4-diamino-6-(1-(5-chloro-4-oxo-3-phenyl-3,4-dihydroquinazolin-2-yl)ethyl))
1 | C[C@H](Nc1nc(N)nc(N)c1C#N)c1nc2cccc(Cl)c2c(=O)n1CC1CCCNC1 (stereo in doubt) [Compound 123, 2,4-diamino-6-(((S)-1-(5-chloro-4-oxo-3-((R)-piperidin-3-ylmethyl)-3,4-dihydroquinazolin-2-yl)ethyl)amino)pyrimidine-5-carbonitrile] | 79 nM | 3 nM | 1300 nM | – | –
2 | C[C@H](Nc1nc(N)nc(N)c1C#N)c1nc2cccc(Cl)c2c(=O)n1CC1CCCNC1 (stereo in doubt) [Compound 124, 2,4-diamino-6-(((S)-1-(5-chloro-4-oxo-3-((S)-piperidin-3-ylmethyl)-3,4-dihydroquinazolin-2-yl)ethyl)amino)pyrimidine-5-carbonitrile] | 88 nM | 2 nM | 3200 nM | – | –
3 | N#Cc1c(N)nc(N)nc1N[C@@H](c1ccccc1)c1nc2cccc(Cl)c2c(=O)n1CCCN [Compound 1, (S)-2,4-diamino-6-(((3-(3-aminopropyl)-5-chloro-4-oxo-3,4-dihydroquinazolin-2-yl)(phenyl)methyl)amino)pyrimidine-5-carbonitrile] | 27 nM | 9 nM | ≥ 10000 nM | – | –
4 | C[C@H](Nc1ncnc2scnc12)c1nc2cccc(Cl)c2c(=O)n1CCC(C)(C)N [Compound 2, (S)-3-(3-amino-3-methylbutyl)-5-chloro-2-(1-(thiazolo[5,4-d]pyrimidin-7-ylamino)ethyl)quinazolin-4(3H)-one] | 1500 nM | 27 nM | ≥ 10000 nM | – | –
5 | C[C@H](Nc1ncnc(N)c1C#N)c1nc2cccc(Cl)c2c(=O)n1CCC(C)(C)N [Compound 3, (S)-4-amino-6-((1-(3-(3-amino-3-methylbutyl)-5-chloro-4-oxo-3,4-dihydroquinazolin-2-yl)ethyl)amino)pyrimidine-5-carbonitrile] | 1300 nM | 15 nM | ≥ 10000 nM | – | –
6 | C[C@H](Nc1nc(N)nc(N)c1C#N)c1nc2cccc(Cl)c2c(=O)n1CCCNc1ncccn1 [Compound 4, (S)-2,4-diamino-6-((1-(5-chloro-4-oxo-3-(3-(pyrimidin-2-ylamino)propyl)-3,4-dihydroquinazolin-2-yl)ethyl)amino)pyrimidine-5-carbonitrile] | 420 nM | 5 nM | 660 nM | – | –
7 | C[C@H](Nc1nc(N)nc(N)c1C#N)c1nc2cccc(Cl)c2c(=O)n1CCCNc1ccccn1 [Compound 5, (S)-2,4-diamino-6-((1-(5-chloro-4-oxo-3-(3-(pyridin-2-ylamino)propyl)-3,4-dihydroquinazolin-2-yl)ethyl)amino)pyrimidine-5-carbonitrile] | 930 nM | 5 nM | 2200 nM | – | –
8 | C[C@H](Nc1ncnc(N)c1C#N)c1nc2cccc(Cl)c2c(=O)n1CCCNCc1ccccc1 [Compound 6, (S)-4-amino-6-((1-(3-(3-(benzylamino)propyl)-5-chloro-4-oxo-3,4-dihydroquinazolin-2-yl)ethyl)amino)pyrimidine-5-carbonitrile] | 250 nM | 9 nM | ≥ 10000 nM | – | –
9 | C[C@H](Nc1nc(N)nc(N)c1Cl)c1nc2cccc(Cl)c2c(=O)n1CCCN [Compound 7, (S)-3-(3-aminopropyl)-5-chloro-2-(1-((2,6-diamino-5-chloropyrimidin-4-yl)amino)ethyl)quinazolin-4(3H)-one] | 140 nM | 35 nM | ≥ 10000 nM | – | –
10 | C[C@H](Nc1nc(N)nc(N)c1C#N)c1nc2cccc(Cl)c2c(=O)n1CCCNCc1ccccc1 [Compound 8, (S)-2,4-diamino-6-((1-(3-(3-(benzylamino)propyl)-5-chloro-4-oxo-3,4-dihydroquinazolin-2-yl)ethyl)amino)pyrimidine-5-carbonitrile] | 68 nM | 5 nM | 1700 nM | – | –
11 | C[C@H](Nc1nc(N)nc(N)c1C#N)c1nc2cccc(Cl)c2c(=O)n1N(CCN)Cc1ccccc1 [Compound 9, (S)-2,4-diamino-6-((1-(3-((2-aminoethyl)(benzyl)amino)-5-chloro-4-oxo-3,4-dihydroquinazolin-2-yl)ethyl)amino)pyrimidine-5-carbonitrile] | 170 nM | 77 nM | ≥ 10000 nM | – | –
12 | C[C@H](Nc1nc(N)nc(N)c1C#N)c1nc2cccc(Cl)c2c(=O)n1N(CCN)Cc1ccccc1 [Compound 10, (S)-2,4-diamino-6-((1-(3-((2-aminoethyl)(benzyl)amino)-5-chloro-4-oxo-3,4-dihydroquinazolin-2-yl)ethyl)amino)pyrimidine-5-carbonitrile] | 840 nM | 480 nM | ≥ 10000 nM | – | –
13 | C[C@H](Nc1ncnn2ccnc12)c1nc2cccc(Cl)c2c(=O)n1N(C)CCN [Compound 11, (S)-3-((2-aminoethyl)(methyl)amino)-5-chloro-2-(1-(imidazo[2,1-f][1,2,4]triazin-4-ylamino)ethyl)quinazolin-4(3H)-one] | 93 nM | 37 nM | ≥ 10000 nM | – | –
14 | C[C@H](Nc1ncnc(N)c1C#N)c1nc2cccc(Cl)c2c(=O)n1N(CCN)Cc1ccccc1 [Compound 12, (S)-4-amino-6-((1-(3-((2-aminoethyl)(benzyl)amino)-5-chloro-4-oxo-3,4-dihydroquinazolin-2-yl)ethyl)amino)pyrimidine-5-carbonitrile] | 300 nM | 52 nM | ≥ 10000 nM | – | –
15 | C[C@H](Nc1ncnc(N)c1C#N)c1nc2cccc(Cl)c2c(=O)n1N(CCN)Cc1ccccc1 [Compound 13, (S)-4-amino-6-((1-(3-((2-aminoethyl)(benzyl)amino)-5-chloro-4-oxo-3,4-dihydroquinazolin-2-yl)ethyl)amino)pyrimidine-5-carbonitrile] | 6800 nM | 3300 nM | ≥ 10000 nM | – | –
16 | C[C@H](Nc1nc(N)nc(N)c1C#N)c1nc2cccc(Cl)c2c(=O)n1N(C)CCN [Compound 14, (S)-2,4-diamino-6-((1-(3-((2-aminoethyl)(methyl)amino)-5-chloro-4-oxo-3,4-dihydroquinazolin-2-yl)ethyl)amino)pyrimidine-5-carbonitrile] | 9 nM | 2 nM | 1900 nM | – | –
17 | C[C@H](Nc1nc(N)nc(N)c1C#N)c1nc2cccc(Cl)c2c(=O)n1N(C)CCN [Compound 15, (S)-2,4-diamino-6-((1-(3-((2-aminoethyl)(methyl)amino)-5-chloro-4-oxo-3,4-dihydroquinazolin-2-yl)ethyl)amino)pyrimidine-5-carbonitrile] | 2 nM | 3 nM | 1700 nM | – | –
18 | C[C@H](Nc1ncnc(N)c1C#N)c1nc2cccc(Cl)c2c(=O)n1N(C)CCN [Compound 16, (S)-4-amino-6-((1-(3-((2-aminoethyl)(methyl)amino)-5-chloro-4-oxo-3,4-dihydroquinazolin-2-yl)ethyl)amino)pyrimidine-5-carbonitrile] | 42 nM | 7 nM | ≥ 10000 nM | – | –
19 | C[C@H](Nc1ncnc(N)c1C#N)c1nc2cccc(Cl)c2c(=O)n1N(C)CCN [Compound 17, (S)-4-amino-6-((1-(3-((2-aminoethyl)(methyl)amino)-5-chloro-4-oxo-3,4-dihydroquinazolin-2-yl)ethyl)amino)pyrimidine-5-carbonitrile] | 69 nM | 11 nM | ≥ 10000 nM | – | –
20 | C[C@H](NC(=O)c1nccnc1N)c1nc2cccc(Cl)c2c(=O)n1CCCN [Compound 18, (S)-3-amino-N-(1-(3-(3-aminopropyl)-5-chloro-4-oxo-3,4-dihydroquinazolin-2-yl)ethyl)pyrazine-2-carboxamide] | 360 nM | 370 nM | ≥ 10000 nM | – | –
21 | C[C@H](Nc1ncnc2[nH]cnc12)c1nc2cccc(Cl)c2c(=O)n1CCCN1CCOCC1 [Compound 19, (S)-2-(1-((9H-purin-6-yl)amino)ethyl)-5-chloro-3-(3-morpholinopropyl)quinazolin-4(3H)-one] | 1300 nM | 14 nM | ≥ 10000 nM | – | –
22 | Cc1ncnc(N[C@@H](C)c2nc3cccc(Cl)c3c(=O)n2CCCN)c1C#N [Compound 23, (S)-4-((1-(3-(3-aminopropyl)-5-chloro-4-oxo-3,4-dihydroquinazolin-2-yl)ethyl)amino)-6-methylpyrimidine-5-carbonitrile] | 90 nM | 25 nM | ≥ 10000 nM | – | –
23 | CC(CCN)n1c([C@H](C)Nc2ncnc(N)c2C#N)nc2cccc(Cl)c2c1=O (stereo partly drawn) [Compound 24, 4-amino-6-(((1S)-1-(3-(4-aminobutan-2-yl)-5-chloro-4-oxo-3,4-dihydroquinazolin-2-yl)ethyl)amino)pyrimidine-5-carbonitrile] | 51 nM | 6 nM | ≥ 10000 nM | – | –
24 | CC(CN)n1c([C@H](C)Nc2ncnc(N)c2C#N)nc2cccc(Cl)c2c1=O (stereo partly drawn) [Compound 25, 4-amino-6-(((1S)-1-(3-(1-aminopropan-2-yl)-5-chloro-4-oxo-3,4-dihydroquinazolin-2-yl)ethyl)amino)pyrimidine-5-carbonitrile] | 1300 nM | 100 nM | ≥ 10000 nM | – | –
25 | C[C@H](Nc1ncnc(N)c1C#N)c1nc2cccc(Cl)c2c(=O)n1CCN [Compound 26, (S)-4-amino-6-((1-(3-(2-aminoethyl)-5-chloro-4-oxo-3,4-dihydroquinazolin-2-yl)ethyl)amino)pyrimidine-5-carbonitrile] | 740 nM | 150 nM | ≥ 10000 nM | – | –
26 | C[C@H](Nc1nc(N)nc(N)c1C#N)c1nc2cccc(Cl)c2c(=O)n1-c1ccccc1 [Compound X, (S)-2,4-diamino-6-((1-(5-chloro-4-oxo-3-phenyl-3,4-dihydroquinazolin-2-yl)ethyl)amino)pyrimidine-5-carbonitrile, reference compound] | – | – | – | 0.6 | less than 1
